Legend:
[1] = test system: Penicillium expansum; experiment: reduction of spores in suspension in absence or presence of organic matter; assay type: cell-based; conditions: PTS 750 ppm 1 min.
Description: (§1) In addition, under the real conditions of a disinfecting bath for boxes, crates and containers, as well as for the disinfection of rooms and work surfaces, organic material (soil residue, rotten fruit, leaves etc.) is generally present, which can reduce the action of the disinfectant agent. Therefore, the effectiveness of PTS and PTSO has also been assessed in the presence of organic matter on two pathogens that cause post-harvest rot of stone fruit (Penicillium expansum) and citrus fruit (Penicillium digitatum).

[2] = test system: Penicillium digitatum; experiment: as above; assay type: cell-based; conditions: PTS 750 ppm 1 min.
Description: as §1

[3] = test system: R. stolonifer; experiment: disinfection of artificially contaminated containers by drencher; parameters: species or system Rhizopus stolonifer; conditions: drencher 30 seconds
Protocol: (§2) A test of the disinfection of containers (fruit boxes and crates) was conducted in which a level of artificial contamination was created by means of controlled inoculation, with the objective of determining optimum doses of application to achieve a satisfactory disinfection. First the containers (made of wood and plastic) were disinfected with sodium hypochlorite, and they were then artificially contaminated via controlled inoculations with different fungi characteristic of the fruit and vegetable processing sector. For this purpose, isolated wild strains were used which, after sporulation, were collected to create a suspension of mixed spores of various fungi (Penicillium expansum, Penicillium italicum, Penicillium digitarum and Alternario alternata) and, separately in simultaneous tests (as a result of its higher rate of growth and its invasive character), a suspension of Rhizopus stolonifer. […] After this fogging, the containers were allowed to dry. The containers were then sampled to determine the level of initial contamination achieved (by means of contact plates containing Rose Bengal agar). The containers were then treated in a pilot line […]. The hold time of the containers under the showers was 30 seconds, and the test doses were 750 ppm and 1050 ppm for PTS and 2000 ppm and 5000 ppm in the case of PTSO. After exiting the showers, the treated containers were allowed to dry, and were again sampled using contact plates with Rose Bengal agar to determine the final level of contamination. The sampling unit was 3 containers and 3 plates per repetition.

[4] = test system: Penicillium digitatum; experiment: post-harvest rotting of inoculated oranges (Navelina), immersion treatment; assay type: in vivo
Protocol: (§3) This example considers the effectiveness of the active natural principles PTS and PTSO in two different doses for the control of post-harvest rotting of oranges ([…] variety), caused by controlled artificial inoculation with the fungi Penicillium digitatum, Penicillium expansum, Phytophthora citrophthora and Geotrichum candidum, the principal pathogens of this fruit. The inoculation of the oranges was carried out with suspensions of spores of the different wild fungal strains selected, according to the methodology described below. The first step was the isolation and identification of the fungal strains used in the study. The strains of filamentous fungi used in these tests (Penicillium digitatum, Penicillium italicum and Phytophthora citrophthora) were isolated from oranges affected by rot. In these isolation processes, it was not possible to detect any strain belonging to Geotrichum candidum, as a result of which it was necessary to obtain the latter substance from the Spanish Collection of Standard Cultures, where it is identified by reference CECT 1102. […] To promote the implantation of the inoculum of Geotrichum candidum, 200 ppm of cyclohexamide was added to the inoculum prior to its inoculation. […] The assessment of the effectiveness of PTS and PTSO comprised counting of the number of fruits affected by rot in the inoculated zone, to determine the percentage of fruit affected for each treatment and fungus inoculated, and expressing this effectiveness as a percentage of reduction of the affected fruit.

[5] = test system: Penicillium italicum; experiment: as above; assay type: in vivo
Protocol: as §3

[6] = test system: Pseudomonas aeruginosa ATCC 9027; experiment: agar diffusion test with impregnated cellulose discs; assay type: cell-based; conditions: incl. 6 mm disc
[7] = test system: Penicillium solitum Wild strain; experiment: as above; assay type: cell-based; conditions: incl. 6 mm disc
[8] = test system: Escherichia coli ATCC 25922; experiment: as above; assay type: cell-based; conditions: incl. 6 mm disc
[9] = test system: Rhizopus stolonifer; experiment: disinfection of containers stored inside the rooms by fogging
[10] = test system: Bacillus cereus ATCC 10876; experiment: agar diffusion test with impregnated cellulose discs; assay type: cell-based; conditions: incl. 6 mm disc
[11] = test system: Fungi mixture (P. expansum, P. italicum, P. digitatum and A. Alternata); experiment: disinfection of artificially contaminated containers by drencher; conditions: drencher 30 seconds
Protocol: as §2

[12] = test system: Fungi mixture (P. expansum, P. italicum, P. digitatum and A. Alternata); experiment: disinfection of containers stored inside the rooms by fogging
[13] = test system: Ralstonia solanacearum Strain GM1000; assay type: cell-based; conditions: in vitro tests
[14] = organic matter Absence, 0 hours
[15] = organic matter Absence, 2 hours
[16] = organic matter Absence, 3 hours
[17] = organic matter Presence, 0 hours
[18] = organic matter Presence, 1 hour
[19] = organic matter Presence, 2 hours
[20] = organic matter Presence, 3 hours
[21] = 1600 ppm, 5 days of treatment at 20° C., title: treated with PTSO
[22] = 1600 ppm, 7 days of treatment at 20° C., title: treated with PTSO
[23] = 2500 ppm, 5 days of treatment at 20° C., title: treated with PTSO
[24] = 2500 ppm, 7 days of treatment at 20° C., title: treated with PTSO
[25] = 1600 ppm, 4 days at 20° C., title: treated with PTSO
[26] = 2500 ppm, 4 days at 20° C., title: treated with PTSO

## CCCS[S+]([O-])CCC (stereo not drawn) [PTS, Propyl Propyl Thiosulfinate]
[1]; [14]
  Reduction of the population (%): 68%
[1]; organic matter Absence, 1 hour
  Reduction of the population (%): 82%
[1]; [15]
  Reduction of the population (%): 45%
[1]; [16]
  Reduction of the population (%): 68%
[1]; [17]
  Reduction of the population (%): 73%
[1]; [18]
  Reduction of the population (%): 41%
[1]; [19]
  Reduction of the population (%): 36%
[1]; [20]
  Reduction of the population (%): 18%
[2]; [14]
  Reduction of the population (%): 100%
[2]; organic matter Absence, 1 hour
  Reduction of the population (%): 100%
[2]; [15]
  Reduction of the population (%): 100%
[2]; [16]
  Reduction of the population (%): 100%
[2]; [17]
  Reduction of the population (%): 100%
[2]; [18]
  Reduction of the population (%): 100%
[2]; [19]
  Reduction of the population (%): 100%
[2]; [20]
  Reduction of the population (%): 100%
[3]; 750 ppm, Plastic container
  Reduction of the population (%): 100%
[3]; 750 ppm, Wood container
  Reduction of the population (%): 94%
[3]; 1050 ppm, Plastic container
  Reduction of the population (%): 99%
[3]; 1050 ppm, Wood container
  Reduction of the population (%): 100%
[4]; [21]
  % Reduction: 72%
  % of fruit affected: 28%
[4]; [22]
  % Reduction: 40%
  % of fruit affected: 60%
[4]; 1600 ppm, 14 days at 20° C.
  % Reduction: 0%
  % of fruit affected: 100%
[4]; 1666 ppm, 7 days at 20° C.
  % Reduction: 23%
  % of fruit affected: 77%
[4]; [23]
  % Reduction: 85%
  % of fruit affected: 15%
[4]; 2500 ppm, 7 days at 20° C.
  % Reduction: 53%
  % of fruit affected: 47%
[4]; [24]
  % Reduction: 57%
  % of fruit affected: 43%
[4]; 2500 ppm, 14 days at 20° C.
  % of fruit affected: 36%
[5]; [25]
  % Reduction: 80%
  % of fruit affected: 20%
[5]; 1600 ppm, 14 days at 20° C.
  % Reduction: 72%
  % of fruit affected: 28%
[5]; 1666 ppm, 7 days at 20° C.
  % of fruit affected: 0%
[5]; [26]
  % Reduction: 85%
  % of fruit affected: 15%
[5]; 2500 ppm, 7 days at 20° C.
  % Reduction: 100%
  % of fruit affected: 0%
[5]; 2500 ppm, 14 days at 20° C.
  % Reduction: 85%
  % of fruit affected: 15%
[6]; 60 ppm
  diameter of the microbial inhibition halo: 8 mm
[6]; 125 ppm
  diameter of the microbial inhibition halo: 9 mm
[6]; 250 ppm
  diameter of the microbial inhibition halo: 10 mm
[6]; 500 ppm
  diameter of the microbial inhibition halo: 12 mm
[6]; 1000 ppm
  diameter of the microbial inhibition halo: 14 mm
[7]; 60 ppm
  diameter of the microbial inhibition halo: 0 mm
[7]; 125 ppm
  diameter of the microbial inhibition halo: 11 mm
[7]; 250 ppm
  diameter of the microbial inhibition halo: 16 mm
[7]; 500 ppm
  diameter of the microbial inhibition halo: 28 mm
[7]; 1000 ppm
  diameter of the microbial inhibition halo: 35 mm
[8]; 60 ppm
  diameter of the microbial inhibition halo: 12 mm
[8]; 125 ppm
  diameter of the microbial inhibition halo: 17 mm
[8]; 250 ppm
  diameter of the microbial inhibition halo: 24 mm
[8]; 500 ppm
  diameter of the microbial inhibition halo: 25 mm
[8]; 1000 ppm
  diameter of the microbial inhibition halo: 27 mm
[9]; 750 ppm, Plastic container
  Reduction of the population (%): 36%
[9]; 1050 ppm, Plastic container
  Reduction of the population (%): 27%
[9]; 1050 ppm, Wood container
  Reduction of the population (%): 26%
[10]; 60 ppm
  diameter of the microbial inhibition halo: 15 mm
[10]; 125 ppm
  diameter of the microbial inhibition halo: 20 mm
[10]; 250 ppm
  diameter of the microbial inhibition halo: 25 mm
[10]; 500 ppm
  diameter of the microbial inhibition halo: 27 mm
[10]; 1000 ppm
  diameter of the microbial inhibition halo: 35 mm
[11]; 750 ppm, Plastic container
  Reduction of the population (%): 81%
[11]; 750 ppm, Wood container
  Reduction of the population (%): 85%
[11]; 1050 ppm, Plastic container
  Reduction of the population (%): 87%
[11]; 1050 ppm, Wood container
  Reduction of the population (%): 85%
[12]; 750 ppm, Plastic container
  Reduction of the population (%): 97%
[12]; 750 ppm, Wood container
  Reduction of the population (%): 97%
[12]; 1050 ppm, Plastic container
  Reduction of the population (%): 98%
[12]; 1050 ppm, Wood container
  Reduction of the population (%): 97%
[13]
  effectiveness of the application (in words): highly effective

— patent publication US20090018194A1, “Use of antimicrobial agents derived from alliaceous plants for the prevention and control of crop diseases, post-harvest rot and as environmental disinifectant products” (DMC Research Center, S.L., priority 2007, published 2009)
